# Assays:
# normal pressure monkeys [1] = assay: Intraocular pressure lowering, concomitant administration of omidenepag isopropyl and ripasudil (Example 1); assay type: in vivo, cynomolgus monkey; details: male cynomolgus monkeys, average of 7, eye drop 20 μL: omidenepag isopropyl 0.0006 w/v%, ripasudil eye drops 0.4%
# Experimental: (§1) In order to examine usefulness of the combination of omidenepag or an ester thereof or a salt thereof and ripasudil, the effect of lowering an intraocular pressure when omidenepag isopropyl and ripasudil were administered concomitantly to experimental animals (normal pressure monkeys) was investigated.
# To purified water were added polyoxyl 35 castor oil, glycerin, sodium citrate, sodium edetate and benzalkonium chloride to dissolve them, and after adjusting pH, purified water was added to adjust the whole amount.
# (§2) To purified water were added omidenepag isopropyl, polyoxyl 35 castor oil, glycerin, sodium citrate, sodium edetate and benzalkonium chloride to dissolve them, and after adjusting pH, purified water was added to adjust the whole amount to prepare a 0.0006 w/v% omidenepag isopropyl solution.
# Commercially available physiological saline solution (trade name: Otsuka Normal Saline, obtained from Otsuka Pharmaceutical Factory, Inc.) was used as it was.
# Commercially available ripasudil eye drop was used as it was.
# (§3) An effect of lowering an intraocular pressure when omidenepag isopropyl and ripasudil were administered concomitantly was investigated. As a comparative subject, an effect of lowering an intraocular pressure when omidenepag isopropyl or ripasudil was administered alone was also investigated. As a control, the base and the physiological saline solution were administered.
# Omidenepag isopropyl solution: 0.0006w/v% omidenepag isopropyl solution (volume of eye dropped: 20 μL) Ripasudil solution: ripasudil eye drop (trade name: Glanatec (Registered Trademark) eye drops 0.4%, volume of eye dropped: 20 μL)
# Experimental animal: cynomolgus monkey (sex: male, 7 monkeys per a group)
# [1] Concomitant Administration of Omidenepag Isopropyl and Ripasudil
# (§4) (1) A drop of 0.4% oxybuprocaine hydrochloride eye drop (trade name: Benoxil (Registered Trademark) eye drops 0.4%) was applied to one eye of an experimental animal and local anesthesia was conducted.
# (§5) (2) Immediately before administration of a compound solution to be tested, an intraocular pressure was measured and the value was made an initial intraocular pressure.
# (3) The omidenepag isopropyl solution was applied to one eye of the experimental animal (the contralateral eye was untreated). After a short time (after about 5 minutes), the ripasudil solution was applied to the same eye.
# (§6) (4) After 2 hours, 4 hours, 6 hours, 8 hours and 24 hours from applying the omidenepag isopropyl solution to the eye, one drop of 0.4% oxybuprocaine hydrochloride eye drop was applied to the eye to be measured for the intraocular pressure respectively, and after local anesthesia, the intraocular pressure was measured. Also, the intraocular pressure was measured each three times, and the average value was shown in the results.
# [2] Single Administration of Omidenepag Isopropyl
# The test was carried out in the same manner as the above-mentioned concomitant administration test except for changing the ripasudil solution to the physiological saline solution.
# [3] Single Administration of Ripasudil
# The test was carried out in the same manner as the above-mentioned concomitant administration test except for changing the omidenepag isopropyl solution to the base.
# The test was carried out in the same manner as the above-mentioned concomitant administration test except for changing the omidenepag isopropyl solution to the base and changing the ripasudil solution to the physiological saline solution.
# The changes in the intraocular pressure values are shown by an average value±SEM of the difference from the value (0 hour) before administration of seven monkeys in each group with regard to each measurement time point of each individual. […]
# normal pressure monkeys [2] = assay: Intraocular pressure lowering, concomitant administration of omidenepag isopropyl and netarsudil (Example 2); assay type: in vivo, cynomolgus monkey; details: male cynomolgus monkeys, average of 8, eye drop 20 μL: omidenepag isopropyl 0.0006 w/v%, netarsudil 0.01 w/v% (dimesylate)
# Experimental: as §1, with “netarsudil,” for “ripasudil,”, “netarsudil” for “ripasudil”
# (1) Preparation of Base of Omidenepag Isopropyl Solution • (Preparation of Compound Solution to be Tested) […]
# (2) Preparation of Omidenepag Isopropyl Solution
# as §2
# (3) Preparation of Netarsudil Solution
# Dimesylate of netarsudil was dissolved in a physiological saline solution containing a solubilizing agent, and then, a netarsudil solution having a desired concentration was prepared by using a commonly used method.
# as §3, with “netarsudil” for “ripasudil”, “base of the omidenepag isopropyl solution” for “base”, “base of the netarsudil” for “physiological saline”
# Omidenepag isopropyl solution: 0.0006w/v% omidenepag isopropyl solution (volume of eye dropped: 20 μL)
# Netarsudil solution: 0.01 w/v% netarsudil solution (volume of eye dropped: 20 μL)
# Experimental animal: cynomolgus monkey (sex: male, 8 monkeys per a group)
# [1] Contamitant Administration of Omidenepag Isopropyl and Netarsudil
# as §4, §5
# (3) The omidenepag isopropyl solution was applied to one eye of the experimental animal (the contralateral eye was untreated). After a short time (after about 5 minutes), the netarsudil solution was applied to the same eye.
# as §6, with “results. […]” for “results.”
# The test was carried out in the same manner as the above-mentioned concomitant administration test except for changing the omidenepag isopropyl solution to the base of the omidenepag isopropyl solution. […]
# The changes in the intraocular pressure values are shown by an average value±SEM of the difference from the value (0 hour) before administration of eight monkeys in each group with regard to each measurement time point of each individual. Here, the significance was evaluated by the Dunnett-Hsu test, and the significance level with respect to the control group was shown as *: p<0.05, **: p<0.01, and ***: p<0.001, the significance level with respect to the omidenepag isopropyl administered group was shown as †: p<0.05, ††: p<0.01, and †††: p<0.001, and the significance level with respect to the netarsudil administered group was shown as ♯♯: p<0.01, and ♯♯♯p<0.001.
SMILES,change in intraocular pressure value (difference from value before administration) (normal pressure monkeys [1]; 2 hours after dropping),change in intraocular pressure value (difference from value before administration) (normal pressure monkeys [1]; 4 hours after dropping),change in intraocular pressure value (difference from value before administration) (normal pressure monkeys [1]; 6 hours after dropping),change in intraocular pressure value (difference from value before administration) (normal pressure monkeys [1]; 8 hours after dropping),change in intraocular pressure value (difference from value before administration) (normal pressure monkeys [1]; 24 hours after dropping),change in intraocular pressure value (difference from value before administration) (normal pressure monkeys [2]; 2 hours after dropping),change in intraocular pressure value (difference from value before administration) (normal pressure monkeys [2]; 4 hours after dropping),change in intraocular pressure value (difference from value before administration) (normal pressure monkeys [2]; 6 hours after dropping),change in intraocular pressure value (difference from value before administration) (normal pressure monkeys [2]; 8 hours after dropping),change in intraocular pressure value (difference from value before administration) (normal pressure monkeys [2]; 24 hours after dropping)
"CC(C)OC(=O)CNc1cccc(CN(Cc2ccc(-n3cccn3)cc2)S(=O)(=O)c2cccnc2)n1 [Omidenepag isopropyl, isopropyl (6-{[4-(pyrazol-1-yl)benzyl](pyridin-3-ylsulfonyl)aminomethyl}pyridin-2-ylamino)acetate]",0.0,−1.2,−0.7,−0.6,−0.1,−0.9,−2.5,−2.5,−2.3,−0.3
"Cc1ccc(C(=O)OCc2ccc([C@@H](CN)C(=O)Nc3ccc4cnccc4c3)cc2)c(C)c1 [Netarsudil, [4-[(1S)-1-(aminomethyl)-2-(isoquinolin-6-ylamino)-2-oxoethyl]phenyl]methyl 2,4-dimethylbenzoate]",,,,,,−1.5,−2.3,−3.0,−3.0,−0.8
"C[C@H]1CNCCCN1S(=O)(=O)c1cccc2cncc(F)c12 [Ripasudil, (S)-(-)-1-(4-fluoro-5-isoquinolinesulfonyl) 2-methyl-1,4-homopiperazine]",−2.7,−1.6,−1.6,−0.8,0.0,,,,,
